These results are taken from patent US10696651B2, “Heterocyclic compound” (Takeda Pharmaceutical Company Limited, priority 2016, dated 2020).

SMILES strings stand for the structures.

For assay [1], the system named is human acute lymphoblastic leukemia cell line CCRF-CEM. Briefly: In vitro tumor proliferation inhibitory assay with combined use of asparaginase. Format: cell-based. Particulars: compound concentration 100 nM, L-asparaginase 0.1 U/mL, 72 hr, read-out: in vitro cell proliferation inhibitory rate (%). As for the experimental part:
A cell suspension (40 μL) (5000 cells/well) of human acute lymphoblastic leukemia cell line CCRF-CEM obtained from ATCC (American Type Culture Collection) was seeded on a 384 well plate using RPMI1640 medium. The seeded cells were incubated (37° C., 5% CO2) overnight to 24 hr at the longest. L-asparaginase (Sigma-Aldrich Co. LLC.) was dissolved in PBS and treated in each well to a final concentration of 0.1 U/mL. Furthermore, each test compound was dissolved (10 mM) in DMSO, delivered to wells by using TECAN HP D300 (TECAN), and the plate was incubated for 72 hr (37° C., 5% CO2). A well without addition of compound was treated similarly as a control group. […] After incubation for 10 min, cell proliferation inhibitory rate was measured by the amount of ATP which is a cell viability marker.
Luminescence of cells showing ATP amount was measured using ARVO MX (PerkinElmer). Based on the luminescence value of the control group without addition of test compound solution and the treatment group with addition of test compound, the cell proliferation inhibitory rate (%) of the test compound at a compound concentration of 100 nM was calculated by the following formula and the results thereof are shown in Table 7. Inhibitory rate (%)=(1−(luminescence value of treatment group)÷(luminescence value of control group))×100

The test system of assay [2] is osteosarcoma cell line U-2-OS. Briefly: In vitro cell proliferation inhibition assay (CellTiter-Glo, low amino acid media). As to conditions: Homo sapiens, U2OS, 72 h, cell proliferation inhibitory rate, McCoy's 5A low amino acid media, Table 4-1. It is filed as cell-based. A digest of the protocol: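 Cells seeded at 1000 per well in McCoy's 5A low amino acid medium (25% amino acid content), then exposed to compound for 72 h at 37° C., 5% CO2. ATP measured by CellTiter-Glo luminescence. Inhibition (%) at 100 nM calculated relative to pre-treatment and untreated control wells.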

For assay [3], the system named is ATF4 expression in CCRF-CEM tumor. Put plainly: In vivo ATF4 expression suppression assay (Western blot of CCRF-CEM xenograft tumor) in the presence of L-asparaginase. As to conditions: compound 10 mg/kg oral 8 hr before tumor removal, L-asparaginase 1000 U/kg s.c. 32 hr and 8 hr before, CCRF-CEM xenograft in SCID mouse. The text has this:
One million human acute lymphoblastic leukemia cell lines CCRF-CEM obtained from ATCC (American Type Culture Collection) were suspended in Matrigel solution (Corning) and implanted subcutaneously into 6-week-old female SCID mouse (CLEA Japan, Inc.) by injection. The mice in which the tumor engrafted to a size of about 200-1000 mm^3 tumor volume after transplantation were selected and 3 mice per group were used for the experiment. L-asparaginase (Kyowa Hakko Kogyo Co., Ltd.) was subcutaneously administered at a dose of 1000 U/kg 32 hr and 8 hr before tumor removal. A 0.5% methylcellulose suspension of the compound was orally administered at a dose of 10 mg/kg 8 hr before tumor removal. After tumor removal, protein was extracted using Lysing Matrix I tube (MP Biomedicals) containing a protein extract (10% glycerol, 1% sodium dodecyl sulfate, 62.5 mM Tris-HCl [pH 7.5], protease and phosphatase inhibitors [Complete mini and PhosSTOP, Sigma-Aldrich Co. LLC.]) and subjected to Western blot.
Protein extract solution was subjected to protein quantification with BCA Protein Assay Kit (Thermo Scientific), electrophoresed on 7.5-15% SDS-PAGE gel (DRC), and protein in the gel was transferred to PVDF membrane. The membrane was blocked with Starting Block T20 (PBS) Blocking Buffer (Thermo Scientific). […] Thereafter, chemiluminescence was performed using ImmunoStar LD (Wako Pure Chemical Industries, Ltd.), and luminescence intensity was measured by LAS-3000 image analyzer (Fuji Film Co., Ltd.). Furthermore, the expression level of ATF4 was digitized by quantifying the luminescence intensity using Multi Gauge Ver. […]
Based on the ATF4 expression level of the control group orally administered with 0.5% methylcellulose suspension free of Example compound and the treatment group orally administered with Example compound suspension, the ATF4 expression inhibition ratio (%) of the test compound at a compound dose 10 mg/kg was calculated by the following formula and the results thereof are shown in Table 6. […]

`COc1ncc(Cl)cc1S(=O)(=O)Nc1ccc(F)c(C#Cc2cnc(N)nc2)c1F` [Example 7, N-(3-((2-aminopyrimidin-5-yl)ethynyl)-2,4-difluorophenyl)-5-chloro-2-methoxypyridine-3-sulfonamide]: the figures for the inhibition at 0.1 µM in assay [1] and in assay [2] were 90% and 96%, respectively. The “in vivo ATF4 expression inhibition ratio (%)” value in assay [3] was determined as 74%.

Turning to `Nc1ncc(C#Cc2c(F)ccc(NS(=O)(=O)c3cc(Cl)cc(CO)c3Cl)c2F)cn1` [Example 4, N-(3-((2-aminopyrimidin-5-yl)ethynyl)-2,4-difluorophenyl)-2,5-dichloro-3-(hydroxymethyl)benzenesulfonamide], the inhibition at 0.1 µM is 89% in assay [1] and 90% in assay [2]. Further, the “in vivo ATF4 expression inhibition ratio (%)” value in assay [3] is on record as 76%.
